Data reported in patent publication US9296720B2, “Carboxamide-substituted heteroaryl-pyrazoles and the use thereof” (AiCuris GmbH & Co. KG, priority 2011, dated 2016).
Read-outs that look alike come from different tables or passages of the source.

Legend:
Format in all cases: cell-based
[1] = tested on: HIV-1NL4-3 Wild Type; assay: Luminescence reduction assay, MT4 cells infected with HIV-1NL4-3 luciferase reporter virus, wild type; conditions: 2% FCS
Method in brief: (§1)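 Compound dilution series in 1% DMSO, with 2% or 10% FCS, incubated 5 days at 37° C/5% CO2 with MT4 cells previously pellet-infected (2 h) by luciferase reporter NL4-3 virus, wild type or carrying RT resistance mutations. EC50 taken where luminescence from secreted luciferase falls to 50% of untreated infected control.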

[2] = tested on: HIV-1LAI Wild Type; assay: AlamarBlue viability assay, HIV-1LAI-infected MT4 cells; conditions: 10% FCS
Method in brief: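 MT4 cells infected with HIV-1LAI (MOI 0.01, supernatant infection) cultured 5 days at 37 °C with compounds in RPMI with 2% or 10% FCS, 1% DMSO final. AlamarBlue fluorescence after 3 h; EC50 as 50% protection relative to uninfected cells, CC50 from high-concentration cytotoxicity.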

[3] = tested on: HIV-1NL4-3 K103N-Y181C; assay: Luminescence reduction assay, MT4 cells infected with HIV-1NL4-3 luciferase reporter virus, RT mutant K103N-Y181C
Method in brief: as §1

[4] = Human immunodeficiency virus 1, MT4, MT4 cells
[5] = Human immunodeficiency virus 1, MT4, read-out: EC50 (μM) MT4 Cells HIV-1NL4-3 K103N-Y181C 2% FCS, MT4 cells, HIV-1NL4-3 K103N-Y181C, 2% FCS

SMILES	EC50 [1, 4]	EC50 [2, 4]	EC50 [3, 5]	EC50 ([1]; MT4 cells)	EC50 ([2]; MT4 cells)	EC50 ([3]; read-out: EC50 (μM) MT4 Cells HIV-1NL4-3 K103N-Y181C 2% FCS, MT4 cells, HIV-1NL4-3 K103N-Y181C, 2% FCS)
O=C(c1cc(-c2cc(Br)cc(OC(F)(F)F)c2)n(-c2ccnc(C(F)(F)F)c2)n1)N1CCS(=O)(=O)C1 [Example 52, {5-[3-Bromo-5-(trifluoromethoxy)phenyl]-1-[2-(trifluoromethyl)pyridin-4-yl]-1H-pyrazol-3-yl}(1,1-dioxido-1,3-thiazolidin-3-yl)methanone]	0.376 µM	> 3.3 µM	0.74 µM			
O=C1CN(C(=O)c2cc(-c3cc(F)cc(Cl)c3)n(-c3ccc(Cl)nc3)n2)CCN1 [Example 8, 4-{[5-(3-Chloro-5-fluorophenyl)-1-(6-chloropyridin-3-yl)-1H-pyrazol-3-yl]carbonyl}piperazin-2-one]	0.06 µM	0.205 µM	0.29 µM			
O=C(c1cc(-c2cc(F)cc(Cl)c2)n(-c2ccnc(C(F)(F)F)c2)n1)N1CCSC1 [Example 18]	0.284 µM	> 3.3 µM	> 3.3 µM			
O=C1CN(C(=O)c2cc(-c3cc(F)cc(Cl)c3)n(-c3ccnc(Cl)c3)n2)CCN1 [Example 15, 4-{[5-(3-Chloro-5-fluorophenyl)-1-(2-chloropyridin-4-yl)-1H-pyrazol-3-yl]carbonyl}piperazin-2-one]	0.018 µM	0.151 µM	0.452 µM			
O=C1CN(C(=O)c2cc(-c3cnc(F)c(Cl)c3)n(-c3cccc(Cl)c3)n2)CN1 [Example 110, 1-{[5-(5-Chloro-6-fluoropyridin-3-yl)-1-(3-chlorophenyl)-1H-pyrazol-3-yl]carbonyl}imidazolidin-4-one]	0.024 µM	0.025 µM	0.039 µM			
O=C1CN(C(=O)c2cc(-c3cc(Br)cc(OC(F)F)c3)n(-c3cccnc3)n2)CN1 [Example 56, 1-({5-[3-Bromo-5-(difluoromethoxy)phenyl]-1-(pyridin-3-yl)-1H-pyrazol-3-yl}carbonyl)imidazolidin-4-one]	0.002 µM	0.011 µM	0.005 µM			
O=C(c1cc(-c2cc(F)cc(Cl)c2)n(-c2cccnc2)n1)N1CC[S+]([O-])C1 (racemic) [Example 6-1, [5-(3-Chloro-5-fluorophenyl)-1-(pyridin-3-yl)-1H-pyrazol-3-yl](1-oxido-1,3-thiazolidin-3-yl)methanone]				0.255 µM	1.49 µM	> 3.3 µM
O=C1CN(C(=O)c2cc(-c3cncc(F)c3)n(-c3ccc(F)c(Cl)c3)n2)CN1 [Example 98, 1-{[1-(3-Chloro-4-fluorophenyl)-5-(5-fluoropyridin-3-yl)-1H-pyrazol-3-yl]carbonyl}imidazolidin-4-one]	0.018 µM	0.056 µM	0.032 µM			
N#Cc1cc(OC(F)(F)F)cc(-c2cc(C(=O)N3CNC(=O)C3)nn2-c2cccnc2)c1 [Example 88, 3-{3-[(4-Oxoimidazolidin-1-yl)carbonyl]-1-(pyridin-3-yl)-1H-pyrazol-5-yl}-5-(trifluoromethoxy)benzonitrile]	0.015 µM	0.186 µM	0.026 µM			
O=C1CN(C(=O)c2cc(-c3cc(F)cc(OCC(F)(F)F)c3)n(-c3cccnc3)n2)CN1 [Example 70, 1-({5-[3-Fluoro-5-(2,2,2-trifluoroethoxy)phenyl]-1-(pyridin-3-yl)-1H-pyrazol-3-yl}carbonyl)imidazolidin-4-one]	< 0.002 µM	0.034 µM	0.315 µM			
O=C1CN(C(=O)c2cc(-c3cncc(OC(F)F)c3)n(-c3ccc(F)c(Cl)c3)n2)CN1 [Example 105, 1-({1-(3-Chloro-4-fluorophenyl)-5-[5-(difluoromethoxy)pyridin-3-yl]-1H-pyrazol-3-yl}carbonyl)imidazolidin-4-one]	0.018 µM	0.116 µM	0.007 µM			
O=C1CN(C(=O)c2cc(-c3cc(Br)cc(OC(F)(F)F)c3)n(-c3cncc(F)c3)n2)CCN1 [Example 45, 4-({5-[3-Bromo-5-(trifluoromethoxy)phenyl]-1-(5-fluoropyridin-3-yl)-1H-pyrazol-3-yl}carbonyl)piperazin-2-one]	0.095 µM	0.55 µM	0.232 µM			
O=C1CN(C(=O)c2cc(-c3cc(Br)cc(OC(F)(F)F)c3)n(-c3cccnc3)n2)CCN1 [Example 29, 4-({5-[3-Bromo-5-(trifluoromethoxy)phenyl]-1-(pyridin-3-yl)-1H-pyrazol-3-yl}carbonyl)piperazin-2-one]	0.012 µM	0.097 µM	0.032 µM			
O=C(c1cc(-c2cc(Br)cc(OC(F)(F)F)c2)n(-c2cccnc2)n1)N1CCS(=O)(=O)C1 [Example 32, {5-[3-Bromo-5-(trifluoromethoxy)phenyl]-1-(pyridin-3-yl)-1H-pyrazol-3-yl}(1,1-dioxido-1,3-thiazolidin-3-yl)methanone]	0.007 µM	0.083 µM	0.014 µM			
COc1cc(OC(F)(F)F)cc(-c2cc(C(=O)N3CCNC(=O)C3)nn2-c2cccnc2)c1 [Example 85, 4-({5-[3-Methoxy-5-(trifluoromethoxy)phenyl]-1-(pyridin-3-yl)-1H-pyrazol-3-yl}carbonyl)piperazin-2-one]	0.05 µM	0.302 µM	0.123 µM			
O=C(c1cc(-c2cc(Cl)cc(OC(F)(F)F)c2)n(-c2ccc[n+](O)c2)n1)N1CCS(=O)(=O)C1 [Example 80, {5-[3-Chloro-5-(trifluoromethoxy)phenyl]-1-(1-oxidopyridin-3-yl)-1H-pyrazol-3-yl}(1,1-dioxido-1,3-thiazolidin-3-yl)methanone]	0.164 µM	2.79 µM	0.075 µM			
COc1cncc(-c2cc(C(=O)N3CNC(=O)C3)nn2-c2ccc(F)c(Cl)c2)c1 [Example 102, 1-{[1-(3-Chloro-4-fluorophenyl)-5-(5-methoxypyridin-3-yl)-1H-pyrazol-3-yl]carbonyl}imidazolidin-4-one]	0.026 µM	0.111 µM	0.022 µM			
O=C1CN(C(=O)c2cc(-c3cc(Br)cc(OC(F)(F)F)c3)n(-c3ccc(F)nc3)n2)CCN1 [Example 40, 4-({5-[3-Bromo-5-(trifluoromethoxy)phenyl]-1-(6-fluoropyridin-3-yl)-1H-pyrazol-3-yl}carbonyl)piperazin-2-one]	0.013 µM	0.213 µM	0.044 µM			
O=C(c1cc(-c2cc(F)cc(OC(F)(F)F)c2)n(-c2cccnc2)n1)N1CCSC1 [Example 59, {5-[3-Fluoro-5-(trifluoromethoxy)phenyl]-1-(pyridin-3-yl)-1H-pyrazol-3-yl}(1,3-thiazolidin-3-yl)methanone]	0.256 µM	2.78 µM	1.11 µM			
O=C1CN(C(=O)c2cc(-c3cc(Br)cc(OC(F)(F)F)c3)n(-c3cncc(F)c3)n2)CN1 [Example 44, 1-({5-[3-Bromo-5-(trifluoromethoxy)phenyl]-1-(5-fluoropyridin-3-yl)-1H-pyrazol-3-yl}carbonyl)imidazolidin-4-one]	0.018 µM	0.274 µM	0.02 µM			
O=C1CN(C(=O)c2cc(-c3cc(Br)cc(OC(F)(F)F)c3)n(-c3cncc(Cl)c3)n2)CCN1 [Example 43, 4-({5-[3-Bromo-5-(trifluoromethoxy)phenyl]-1-(5-chloropyridin-3-yl)-1H-pyrazol-3-yl}carbonyl)piperazin-2-one]	0.103 µM	0.751 µM	0.529 µM			
